Experimental data taken from ChEMBL document CHEMBL3120074, “p-Terphenyl O-β-glucuronides, DNA topoisomerase inhibitors from Streptomyces sp. LZ35ΔgdmAI” (2014).
The source made the active and inactive calls. The calls are words filed in the database; no cut-off is given here.

Legend:
[1] = tested on: Mycolicibacterium smegmatis; experiment: Antibacterial activity against Mycobacterium smegmatis MC2 155 at 30 ug/disc after 24 hrs by paper disc diffusion assay; assay type: functional; conditions: str. MC2 155, 24 h, read-out: DIZ
Globisporangium ultimum = experiment: Antifungal activity against Pythium ultimum PR9.00318 at 30 ug/disc after 48 hrs by paper disc diffusion assay; assay type: functional, organism-based
Rhizoctonia solani = experiment: Antifungal activity against Rhizoctonia solani GXE4 at 30 ug/disc after 48 hrs by paper disc diffusion assay; assay type: functional, organism-based
[2] = target: DNA topoisomerase 2-alpha (Homo sapiens) (UniProt P11388); experiment: Inhibition of human recombinant DNA topoisomerase 2alpha-mediated relaxation of supercoiled pBR322 DNA at 100 uM after 30 mins by agarose gel electrophoresis
Chain of DNA topoisomerase 2-alpha (Homo sapiens) (P11388 whole entry, the tested form may be a part): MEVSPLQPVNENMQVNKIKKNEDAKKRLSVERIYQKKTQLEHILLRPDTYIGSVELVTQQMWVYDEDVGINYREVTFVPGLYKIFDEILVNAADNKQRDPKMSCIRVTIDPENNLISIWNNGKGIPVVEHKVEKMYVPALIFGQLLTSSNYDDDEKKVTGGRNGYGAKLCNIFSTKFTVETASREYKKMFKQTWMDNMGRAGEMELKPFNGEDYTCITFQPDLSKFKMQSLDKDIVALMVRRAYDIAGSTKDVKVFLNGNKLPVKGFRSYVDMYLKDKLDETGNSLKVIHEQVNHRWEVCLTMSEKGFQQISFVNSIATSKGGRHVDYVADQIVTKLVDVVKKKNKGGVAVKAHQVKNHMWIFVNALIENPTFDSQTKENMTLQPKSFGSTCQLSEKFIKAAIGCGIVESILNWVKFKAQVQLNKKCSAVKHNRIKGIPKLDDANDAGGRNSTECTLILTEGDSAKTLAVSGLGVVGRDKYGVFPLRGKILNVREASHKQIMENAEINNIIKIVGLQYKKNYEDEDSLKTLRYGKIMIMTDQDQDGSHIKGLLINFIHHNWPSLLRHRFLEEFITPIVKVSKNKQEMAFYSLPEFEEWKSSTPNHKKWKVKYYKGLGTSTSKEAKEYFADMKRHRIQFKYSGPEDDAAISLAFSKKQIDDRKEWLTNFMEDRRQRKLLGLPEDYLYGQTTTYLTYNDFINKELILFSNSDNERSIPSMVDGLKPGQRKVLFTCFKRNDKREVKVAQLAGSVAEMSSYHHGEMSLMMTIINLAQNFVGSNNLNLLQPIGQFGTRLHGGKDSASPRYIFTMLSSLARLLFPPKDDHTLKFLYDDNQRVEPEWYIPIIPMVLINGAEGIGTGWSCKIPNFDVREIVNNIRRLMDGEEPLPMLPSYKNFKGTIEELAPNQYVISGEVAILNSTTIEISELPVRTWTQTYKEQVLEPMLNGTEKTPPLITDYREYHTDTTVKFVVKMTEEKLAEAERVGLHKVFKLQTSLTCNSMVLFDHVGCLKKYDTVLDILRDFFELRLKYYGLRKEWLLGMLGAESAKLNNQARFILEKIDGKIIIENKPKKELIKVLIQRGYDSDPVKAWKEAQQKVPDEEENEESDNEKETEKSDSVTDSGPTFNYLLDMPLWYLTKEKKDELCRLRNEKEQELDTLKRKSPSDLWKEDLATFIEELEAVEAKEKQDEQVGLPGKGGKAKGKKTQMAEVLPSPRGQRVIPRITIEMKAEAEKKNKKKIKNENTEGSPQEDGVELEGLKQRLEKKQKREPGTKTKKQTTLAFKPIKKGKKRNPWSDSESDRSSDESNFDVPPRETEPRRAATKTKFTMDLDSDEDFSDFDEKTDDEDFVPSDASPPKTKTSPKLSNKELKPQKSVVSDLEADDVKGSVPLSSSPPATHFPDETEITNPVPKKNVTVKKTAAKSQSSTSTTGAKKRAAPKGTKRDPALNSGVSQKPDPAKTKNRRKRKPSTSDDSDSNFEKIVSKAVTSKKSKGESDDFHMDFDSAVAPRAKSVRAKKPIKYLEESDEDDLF

[3] = Antifungal activity against Monilia albican ATCC 10231 at 30 ug/disc after 48 hrs by paper disc diffusion assay; assay type: functional
Bacillus subtilis = experiment: Antibacterial activity against Bacillus subtilis ACCC 11060 at 30 ug/disc after 24 hrs by paper disc diffusion assay; assay type: functional; conditions: ACCC 11060, 24 h, read-out: DIZ
Bos taurus = species on record: Bos taurus; experiment: Inhibition of calf thymus DNA topoisomerase 1-mediated relaxation of supercoiled pBR322 DNA at 100 uM after 30 mins by agarose gel electrophoresis

For `O=C(O)[C@H]1O[C@@H](Oc2c(-c3ccccc3)cc(O)c(-c3ccccc3)c2O)[C@H](O)[C@@H](O)[C@@H]1O`, the zone of inhibition at 30 µg/disc [1] was 11.2 mm, the Activity (Globisporangium ultimum) was “inactive” and the Activity (Rhizoctonia solani) was “inactive”. For the same molecule, the inhibition [2] was “Active”, the Activity [3] was “inactive” and the zone of inhibition at 30 µg/disc (Bacillus subtilis) was 15.8 mm.

For `O=C(O)[C@H]1O[C@@H](Oc2c(O)c(-c3ccccc3)c3scnc3c2-c2ccccc2)[C@H](O)[C@@H](O)[C@@H]1O`, the Activity (Globisporangium ultimum) was “inactive”, the Activity (Rhizoctonia solani) was “inactive” and the inhibition [2] was “inactive”. For the same molecule, the Activity [3] was “inactive” and the inhibition (Bos taurus) was “inactive”.

For `Cn1c(=O)sc2c(-c3ccccc3)c(O)c(O[C@@H]3O[C@H](C(=O)O)[C@@H](O)[C@H](O)[C@H]3O)c(-c3ccccc3)c21`, the Activity (Globisporangium ultimum) was “inactive”, the Activity (Rhizoctonia solani) was “inactive” and the inhibition [2] was “inactive”. For the same molecule, the Activity [3] was “inactive” and the inhibition (Bos taurus) was “inactive”.

For `COC(=O)[C@H]1O[C@@H](Oc2c(-c3ccccc3)cc(O)c(-c3ccccc3)c2O)[C@H](O)[C@@H](O)[C@@H]1O`, the zone of inhibition at 30 µg/disc [1] was 12 mm, the Activity (Globisporangium ultimum) was “inactive” and the Activity (Rhizoctonia solani) was “inactive”. For the same molecule, the inhibition [2] was “Active”, the Activity [3] was “inactive” and the inhibition (Bos taurus) was “Active”. It also gave a zone of inhibition at 30 µg/disc (Bacillus subtilis) of 14 mm.

With `COc1c(-c2ccccc2)cc(O[C@@H]2O[C@H](C(=O)O)[C@@H](O)[C@H](O)[C@H]2O)c(-c2ccccc2)c1O` the Activity (Globisporangium ultimum) was “inactive”, the Activity (Rhizoctonia solani) was “inactive” and the inhibition [2] was “Active”. For the same molecule, the Activity [3] was “inactive”.
